Legend:
[1] = tested on: cytokine genes in activated Jurkat cells; conditions: cited from earlier work
IL-2 [2] = assay: Suppression of cytokine production, PHA-induced PBMC, ELISA; format: cell-based, human; conditions: 24 hr, single donor
Experimental: (§1) Triptolide suppresses in vitro production of proinflammatory cytokines such as IFN-γ, TNF-α, IL-1β and IL-6, as shown in Table 1. To obtain the data, Jurkat cells were stimulated for 8 hr by PMA and ionomycin. Human peripheral blood mononuclear cells (PBMC) from a single donor were incubated for 24 hr with PHA. At the end of the culture period, each supernatant was harvested, and the cytokine content was assayed by ELISA.

IFN-γ = assay: as above; format: cell-based, human; conditions: 24 hr, single donor
Experimental: as §1

IL-1β = assay: as above; format: cell-based, human; conditions: 24 hr, single donor
Experimental: as §1

IL-6 = assay: as above; format: cell-based, human; conditions: 24 hr, single donor
Experimental: as §1

TNF-α = assay: as above; format: cell-based, human; conditions: 24 hr, single donor
Experimental: as §1

IL-8 = conditions: bronchial epithelial cells; cited from earlier work
IL-2 [3] = assay: Suppression of cytokine production, PMA/ionomycin-induced Jurkat cells, ELISA; format: cell-based, human; conditions: 8 hr
Experimental: as §1

[4] = tested on: IL-2 production in Jurkat cells; conditions: cited from earlier work
[5] = in vivo; cited from earlier work
[6] = Conversion of triptolide prodrug to triptolide in blood serum (TLC); format: in vitro ADME; conditions: 37° C.
Experimental: A solution of triptolide succinate in DMSO (25 mg/ml, 0.1 ml) was mixed with 0.5 ml of rat serum. The mixture was incubated at 37° C. Aliquots of the mixture were taken at 1, 3, 5, 15, 45 minutes and 18 hours and analyzed by thin layer chromatography (TLC). The TLC plates were developed in 1:5 CH2Cl2/Et2O. After development, the plates were treated with iodine vapor and examined under a UV lamp. Triptolide and triptolide succinate were used as reference compounds (Rf=0.60 and 0.45, respectively). […] After 15 minutes, the triptolide succinate spot had disappeared (Rf=0.45), and a new spot corresponding to triptolide had appeared (Rf=0.60).

[7] = Phase I clinical trial, tolerability; format: in vivo, human; conditions: 0.675 μg/m^2 by i.v. infusion, weekly intervals
Experimental: In accordance with the invention, administration of a triptolide compound is expected to inhibit cytokine production, particularly TGF-β production, in a patient suffering from obliterative airway disease, renal fibrosis, diabetic nephropathy, or liver fibrosis, thereby reducing the symptoms of the disease. A range of doses is practical for this treatment. […] This dose calculates to about 20 μg/kg. Treatment in this clinical study is administered at weekly intervals.

[8] = tested on: human T cell lymphoma (Jurkat) cells; conditions: relative to native triptolide; cited from earlier work

For triptolide, the “Expression of cytokine genes (IL-2, IL-3, IL-6, IL-8, IL-13, TNF-α, TGF-β, MIP-1α, MIP-1β, GM-CSF, RANTES)” value [1] is given as “inhibits the expression of several cytokine genes”, the “IC50, suppression of IL-2 production” value (IL-2 [2]) is given as 0.38 ng/mL and the “IC50, suppression of IFN-γ production” value (IFN-γ) is given as 0.52 ng/mL. The “IC50, suppression of IL-1β production” value (IL-1β) was 0.45 ng/mL, the “IC50, suppression of IL-6 production” value (IL-6) was 1.5 ng/mL and the “IC50, suppression of TNF-α production” value (TNF-α) was 0.35 ng/mL. The “IL-8 mRNA and protein expression” value (IL-8) was “suppresses IL-8 expression” and the “IC50, suppression of IL-2 production” value (IL-2 [3]) was 1.3 ng/mL.

For `CC(C)[C@]12O[C@H]1[C@@H]1O[C@]13[C@]1(O[C@H]1C[C@H]1c4c(C(=O)c5ccccc5)oc(OC(=O)c5ccccc5)c4CC[C@@]13C)[C@@H]2O` [PG796, 18-deoxo-19-dehydro-18-benzoyloxy-19-benzoyl triptolide], the “IL-2 inhibition activity compared with triptolide 14-succinate” value ([4]; relative to the prodrug triptolide 14-succinate) is listed as “higher level of activity”.

In the case of triptolide 14-succinate [PG490-88], the “Suppression of IL-2 production” value ([4]; after incubation in plasma) is listed as “in vitro activity in suppression of IL-2 production”, the “Efficacy in animal models of immunosuppression” value [5] is listed as “efficacy in several animal models of immunosuppression” and the “Species detected by TLC after incubation in rat serum” value ([6]; after 3 minutes) is listed as “only triptolide succinate was detected”. For the same molecule, the “Species detected by TLC after incubation in rat serum” value ([6]; after 15 minutes) was “disappeared”.

For “triptolide succinate sodium salt [PG490-88Na]”, the “Tolerability in phase I clinical trial” value [7] was “well tolerated with no drug-related toxicity”.

For `CC(C)[C@]12O[C@H]1[C@@H]1O[C@]13[C@]1(O[C@H]1C[C@H]1C4=C(CC[C@@]13C)C(=O)OC4)[C@H]2F` [PG763, 14-deoxy-14α-fluoro triptolide], the “Cytotoxicity compared with native triptolide” value [8] is listed as “nearly equivalent” and the “IL-2 inhibition activity compared with native triptolide” value ([4]; relative to native triptolide) is listed as “nearly equivalent”.

Source: patent publication US20070244080A1, “Method for Treatment of Inflammatory Disorders Using Triptolide Compounds” (priority 2004, published 2007)
